Source: ChEMBL document CHEMBL5104173, “Combining monoamine oxidase B and semicarbazide-sensitive amine oxidase enzyme inhibition to address inflammatory disease” (Bioorg Med Chem Lett, 2022)
Activity calls are given as the source filed them. No cut-off for these calls is given here.

Key:
[1] = target: T1, Amine oxidase [flavin-containing] B (Homo sapiens, UniProt P27338); test: Inhibition of human recombinant MAO-B
T1 sequence (P27338 whole entry): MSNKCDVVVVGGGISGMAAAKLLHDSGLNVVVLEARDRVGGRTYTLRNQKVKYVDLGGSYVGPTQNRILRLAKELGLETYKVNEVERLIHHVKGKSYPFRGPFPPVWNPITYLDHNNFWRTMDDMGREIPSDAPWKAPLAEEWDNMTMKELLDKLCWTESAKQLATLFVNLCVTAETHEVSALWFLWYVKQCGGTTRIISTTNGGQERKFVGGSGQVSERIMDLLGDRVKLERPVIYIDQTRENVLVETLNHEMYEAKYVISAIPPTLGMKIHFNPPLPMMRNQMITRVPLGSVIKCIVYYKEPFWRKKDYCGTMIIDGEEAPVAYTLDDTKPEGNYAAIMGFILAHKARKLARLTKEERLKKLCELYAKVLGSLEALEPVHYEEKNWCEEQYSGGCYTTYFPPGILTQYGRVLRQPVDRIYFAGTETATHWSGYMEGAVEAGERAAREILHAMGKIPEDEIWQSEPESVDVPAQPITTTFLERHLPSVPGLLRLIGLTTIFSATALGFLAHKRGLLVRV

[2] = target: T2, Amine oxidase [flavin-containing] A (Homo sapiens, UniProt P21397); test: Inhibition of human recombinant MAO-A
T2 sequence (P21397 whole entry): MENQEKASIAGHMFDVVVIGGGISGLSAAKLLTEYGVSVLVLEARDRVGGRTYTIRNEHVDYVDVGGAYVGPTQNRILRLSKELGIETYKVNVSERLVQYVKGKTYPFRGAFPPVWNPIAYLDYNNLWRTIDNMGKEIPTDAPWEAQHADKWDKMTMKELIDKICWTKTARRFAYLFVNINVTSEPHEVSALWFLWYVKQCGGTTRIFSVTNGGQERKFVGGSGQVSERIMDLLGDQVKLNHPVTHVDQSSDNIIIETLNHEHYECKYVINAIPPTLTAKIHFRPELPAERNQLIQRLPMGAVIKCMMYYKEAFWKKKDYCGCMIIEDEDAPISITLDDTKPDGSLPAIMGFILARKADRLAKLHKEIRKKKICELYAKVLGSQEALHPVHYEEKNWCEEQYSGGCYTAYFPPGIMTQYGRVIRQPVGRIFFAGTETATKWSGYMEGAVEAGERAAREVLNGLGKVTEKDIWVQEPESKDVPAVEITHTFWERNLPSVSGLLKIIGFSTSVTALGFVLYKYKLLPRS

[3] = target: recombinant human DAO (diamine oxidase) (Homo sapiens, UniProt P19801); test: Inhibition of human recombinant DAO
Mus musculus [4] = test: Antiinflammatory activity against mouse air pouch model of carrageenan-induced oedema assessed as reduction in total inflammatory cell volume into air pouch at 0.6 to 6 mg/kg, po administered as single dose for 1 hr followed byb carrageenan administration; format: functional, organism-based; details: dose 0.6-6 mg/kg
[5] = target: T3, Amine oxidase [flavin-containing] B (Mus musculus, UniProt Q8BW75); test: Inhibition of mouse muscle MAO-B; format: tissue-based, Muscle tissue
T3 sequence (Q8BW75 whole entry): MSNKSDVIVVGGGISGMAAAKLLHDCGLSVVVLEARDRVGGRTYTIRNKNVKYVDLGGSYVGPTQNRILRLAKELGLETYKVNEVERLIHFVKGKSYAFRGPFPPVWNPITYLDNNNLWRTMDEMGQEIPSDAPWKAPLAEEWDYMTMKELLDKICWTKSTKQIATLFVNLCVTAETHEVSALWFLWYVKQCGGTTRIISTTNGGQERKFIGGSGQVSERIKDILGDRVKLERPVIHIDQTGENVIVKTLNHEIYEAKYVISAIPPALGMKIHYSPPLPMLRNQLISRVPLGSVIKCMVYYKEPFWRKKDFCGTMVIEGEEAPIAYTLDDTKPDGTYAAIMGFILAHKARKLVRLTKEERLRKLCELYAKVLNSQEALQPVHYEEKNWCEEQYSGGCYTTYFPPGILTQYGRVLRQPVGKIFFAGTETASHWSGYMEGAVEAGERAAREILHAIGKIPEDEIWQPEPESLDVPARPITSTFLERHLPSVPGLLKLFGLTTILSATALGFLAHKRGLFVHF

Lysyl oxidase homolog 2 = target: T4, Lysyl oxidase homolog 2 (Homo sapiens, UniProt Q9Y4K0); test: Inhibition of recombinant human LOXL-2
T4 sequence (Q9Y4K0 whole entry): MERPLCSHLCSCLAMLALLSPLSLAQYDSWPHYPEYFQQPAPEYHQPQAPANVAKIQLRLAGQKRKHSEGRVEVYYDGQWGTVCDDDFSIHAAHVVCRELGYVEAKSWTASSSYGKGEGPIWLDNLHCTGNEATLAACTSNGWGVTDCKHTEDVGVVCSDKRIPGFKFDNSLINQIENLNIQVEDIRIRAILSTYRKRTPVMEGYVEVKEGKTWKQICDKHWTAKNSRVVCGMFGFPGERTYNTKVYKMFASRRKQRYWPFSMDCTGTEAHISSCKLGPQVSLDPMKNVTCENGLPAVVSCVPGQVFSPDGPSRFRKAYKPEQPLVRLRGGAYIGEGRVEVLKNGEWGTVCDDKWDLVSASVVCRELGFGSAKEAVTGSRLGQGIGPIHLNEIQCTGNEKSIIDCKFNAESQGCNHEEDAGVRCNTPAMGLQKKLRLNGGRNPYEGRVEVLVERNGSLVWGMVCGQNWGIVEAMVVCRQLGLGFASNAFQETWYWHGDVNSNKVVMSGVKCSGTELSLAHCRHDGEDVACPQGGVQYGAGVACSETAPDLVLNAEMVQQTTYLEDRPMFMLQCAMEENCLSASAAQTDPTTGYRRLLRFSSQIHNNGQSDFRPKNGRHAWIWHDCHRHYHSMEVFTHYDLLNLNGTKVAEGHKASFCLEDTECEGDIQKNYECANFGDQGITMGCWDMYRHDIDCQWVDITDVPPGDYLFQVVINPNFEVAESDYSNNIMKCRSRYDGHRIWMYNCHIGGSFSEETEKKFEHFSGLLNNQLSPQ

Protein-lysine 6-oxidase = target: T5, Protein-lysine 6-oxidase (Bos taurus, UniProt P33072); test: Inhibition of bovine aorta LOX; format: tissue-based
T5 sequence (P33072 whole entry): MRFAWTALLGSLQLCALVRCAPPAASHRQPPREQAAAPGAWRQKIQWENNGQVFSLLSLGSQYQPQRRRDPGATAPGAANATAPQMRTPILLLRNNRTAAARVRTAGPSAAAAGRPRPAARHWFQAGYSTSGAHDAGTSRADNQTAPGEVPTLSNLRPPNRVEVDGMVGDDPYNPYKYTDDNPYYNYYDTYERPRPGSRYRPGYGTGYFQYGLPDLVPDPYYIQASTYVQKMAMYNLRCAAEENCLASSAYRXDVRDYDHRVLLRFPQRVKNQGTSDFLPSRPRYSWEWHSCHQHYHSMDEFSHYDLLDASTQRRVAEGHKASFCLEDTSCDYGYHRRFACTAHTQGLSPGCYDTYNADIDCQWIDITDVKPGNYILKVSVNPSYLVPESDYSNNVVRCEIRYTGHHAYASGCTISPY

[6] = target: Lysine-specific histone demethylase 1A (Homo sapiens, UniProt O60341); test: Inhibition of LSD1 (unknown origin)
[7] = Plasma protein binding in human; format: ADME, cell-free; details: read-out: PPB (converted)
[8] = Plasma protein binding in rat; format: ADME, cell-free; details: read-out: PPB (converted)
[9] = Plasma protein binding in dog; format: ADME, cell-free, Canis lupus familiaris; details: read-out: PPB (converted)
[10] = Stability in human microsomes measured after 1 hr; format: ADME, Microsome; details: read-out: Stability
[11] = Stability in rat microsomes measured after 1 hr; format: ADME, Microsome; details: read-out: Stability
[12] = Stability in dog microsomes measured after 1 hr; format: ADME, Canis lupus familiaris, Microsome; details: read-out: Stability
[13] = Stability in human hepatocytes assessed as parent compound remaining measured after 1 hr; format: ADME, cell-based, Hepatocyte; details: read-out: Stability
Cytochrome P450 1A2 = target: T6, Cytochrome P450 1A2 (Homo sapiens, UniProt P05177); test: Inhibition of CYP1A2 (unknown origin); format: ADME
T6 sequence (P05177 whole entry): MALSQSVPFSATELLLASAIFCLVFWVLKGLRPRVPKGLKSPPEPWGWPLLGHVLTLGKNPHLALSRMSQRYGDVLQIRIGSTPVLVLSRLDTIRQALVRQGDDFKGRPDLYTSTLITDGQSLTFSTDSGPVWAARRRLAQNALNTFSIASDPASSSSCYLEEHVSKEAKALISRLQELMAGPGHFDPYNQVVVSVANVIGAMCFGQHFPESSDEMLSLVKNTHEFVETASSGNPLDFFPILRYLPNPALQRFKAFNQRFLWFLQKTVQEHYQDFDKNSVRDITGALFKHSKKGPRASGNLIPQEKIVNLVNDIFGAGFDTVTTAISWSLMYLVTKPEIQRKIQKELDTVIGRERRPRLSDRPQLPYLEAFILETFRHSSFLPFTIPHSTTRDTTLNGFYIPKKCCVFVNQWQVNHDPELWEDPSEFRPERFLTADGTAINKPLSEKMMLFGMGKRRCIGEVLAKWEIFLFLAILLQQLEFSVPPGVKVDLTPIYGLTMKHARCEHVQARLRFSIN

Cytochrome P450 2C9 = Cytochrome P450 2C9 (Homo sapiens, UniProt P11712); test: Inhibition of CYP2C9 (unknown origin); format: ADME
Cytochrome P450 2C19 = Cytochrome P450 2C19 (Homo sapiens, UniProt P33261); test: Inhibition of CYP2C19 (unknown origin)
Cytochrome P450 2D6 = Cytochrome P450 2D6 (Homo sapiens, UniProt P10635); test: Inhibition of CYP2D6 (unknown origin); format: ADME
Cytochrome P450 3A4 = Cytochrome P450 3A4 (Homo sapiens, UniProt P08684); test: Inhibition of CYP3A4 (unknown origin); format: ADME
[14] = Tmax in Wistar rat at 3 mg/kg, po; format: ADME, organism-based; details: in vivo
[15] = Cmax in Wistar rat at 3 mg/kg, po; format: ADME, organism-based; set-up: dose 3 mg/kg, route po; details: in vivo
[16] = AUC (0 to infinity) in Wistar rat at 3 mg/kg, po; format: ADME, organism-based; set-up: time infinity, dose 3 mg/kg, route po; details: in vivo
Rattus norvegicus [17] = test: In vivo inhibition of MOA-B in Wistar rat brain at 0.6 mg/kg, po administered as single dose and measured upto 48 hrs; format: functional, organism-based
Rattus norvegicus [18] = test: In vivo inhibition of SSAO in Wistar rat adipose tissue at 0.6 mg/kg, po administered as single dose and measured upto 48 hrs; format: functional, organism-based
Rattus norvegicus [19] = test: In vivo inhibition of MOA-A in Wistar rat brain at 3 mg/kg, po administered as single dose and measured upto 48 hrs; format: functional, organism-based
Mus musculus [20] = test: Antiinflammatory activity against mouse air pouch model of carrageenan-induced oedema assessed as reduction in neutrophil number in infiltrate at 0.6 mg/kg, po administered as single dose for 1 hr followed byb carrageenan administration; format: functional, organism-based
Mus musculus [21] = test: Antineuroinflammatory activity in PLP-induced autoimmune encephalomyelitis mouse model assessed as reduction in AUC of clinical score at 0.6 to 6 mg/kg/day, po administered once daily via oral gavage starting from day 13 post PLP sensibilization and measured on day 30; format: functional, organism-based; details: dose 0.6-6 mg/kg/day, time 17.0 day
[22] = Permeability in MDCK-MDR1 cells; format: ADME, cell-based, Canis lupus familiaris; details: dog
[23] = Inhibition of calcium channel (unknown origin) at 10 uM; format: toxicity; details: human
[24] = Inhibition of sodium channel (unknown origin) at 10 uM; format: toxicity; details: human
[25] = Inhibition of potassium channel (unknown origin) at 10 uM; format: toxicity; details: human

Chain of Cytochrome P450 2C19 (P33261 whole entry): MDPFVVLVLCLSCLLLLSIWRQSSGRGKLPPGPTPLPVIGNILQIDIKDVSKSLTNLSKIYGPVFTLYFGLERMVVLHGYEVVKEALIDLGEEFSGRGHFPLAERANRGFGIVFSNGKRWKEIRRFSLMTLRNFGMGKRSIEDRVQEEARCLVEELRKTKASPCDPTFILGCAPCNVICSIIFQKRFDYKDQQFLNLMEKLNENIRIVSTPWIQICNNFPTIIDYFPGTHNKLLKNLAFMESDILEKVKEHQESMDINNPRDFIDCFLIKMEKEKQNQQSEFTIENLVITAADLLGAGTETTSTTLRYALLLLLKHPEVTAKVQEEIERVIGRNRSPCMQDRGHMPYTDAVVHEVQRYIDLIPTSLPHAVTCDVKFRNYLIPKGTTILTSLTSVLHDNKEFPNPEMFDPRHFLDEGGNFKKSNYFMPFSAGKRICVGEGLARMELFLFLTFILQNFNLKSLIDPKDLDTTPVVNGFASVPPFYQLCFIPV
Chain of Cytochrome P450 2C9 (P11712 whole entry): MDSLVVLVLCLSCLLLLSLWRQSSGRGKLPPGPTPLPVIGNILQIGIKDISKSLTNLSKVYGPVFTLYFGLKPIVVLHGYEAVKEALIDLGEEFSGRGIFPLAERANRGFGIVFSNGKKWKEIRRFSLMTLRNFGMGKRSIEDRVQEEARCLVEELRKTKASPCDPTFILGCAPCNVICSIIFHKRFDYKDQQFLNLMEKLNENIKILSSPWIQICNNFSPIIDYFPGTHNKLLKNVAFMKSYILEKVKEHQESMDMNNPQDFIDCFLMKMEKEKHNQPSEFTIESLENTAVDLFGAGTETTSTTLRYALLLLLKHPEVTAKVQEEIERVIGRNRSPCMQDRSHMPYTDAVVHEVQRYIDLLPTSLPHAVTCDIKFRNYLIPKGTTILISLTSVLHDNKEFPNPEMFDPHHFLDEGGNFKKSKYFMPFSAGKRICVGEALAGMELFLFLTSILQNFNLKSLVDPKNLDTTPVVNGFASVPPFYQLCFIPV
Chain of Cytochrome P450 2D6 (P10635 whole entry): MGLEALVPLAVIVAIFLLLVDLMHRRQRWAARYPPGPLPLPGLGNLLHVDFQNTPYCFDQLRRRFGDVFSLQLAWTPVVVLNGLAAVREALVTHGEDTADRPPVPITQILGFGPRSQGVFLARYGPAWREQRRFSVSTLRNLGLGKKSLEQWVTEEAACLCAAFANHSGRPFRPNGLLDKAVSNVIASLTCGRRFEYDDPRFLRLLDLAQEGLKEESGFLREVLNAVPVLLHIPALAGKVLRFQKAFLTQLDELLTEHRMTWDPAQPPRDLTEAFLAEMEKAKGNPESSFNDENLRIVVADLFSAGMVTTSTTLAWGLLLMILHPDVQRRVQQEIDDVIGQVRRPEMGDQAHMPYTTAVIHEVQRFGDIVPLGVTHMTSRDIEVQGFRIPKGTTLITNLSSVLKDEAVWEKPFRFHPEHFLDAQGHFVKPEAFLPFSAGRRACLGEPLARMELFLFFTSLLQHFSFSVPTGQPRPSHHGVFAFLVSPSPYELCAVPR
Chain of Cytochrome P450 3A4 (P08684 whole entry): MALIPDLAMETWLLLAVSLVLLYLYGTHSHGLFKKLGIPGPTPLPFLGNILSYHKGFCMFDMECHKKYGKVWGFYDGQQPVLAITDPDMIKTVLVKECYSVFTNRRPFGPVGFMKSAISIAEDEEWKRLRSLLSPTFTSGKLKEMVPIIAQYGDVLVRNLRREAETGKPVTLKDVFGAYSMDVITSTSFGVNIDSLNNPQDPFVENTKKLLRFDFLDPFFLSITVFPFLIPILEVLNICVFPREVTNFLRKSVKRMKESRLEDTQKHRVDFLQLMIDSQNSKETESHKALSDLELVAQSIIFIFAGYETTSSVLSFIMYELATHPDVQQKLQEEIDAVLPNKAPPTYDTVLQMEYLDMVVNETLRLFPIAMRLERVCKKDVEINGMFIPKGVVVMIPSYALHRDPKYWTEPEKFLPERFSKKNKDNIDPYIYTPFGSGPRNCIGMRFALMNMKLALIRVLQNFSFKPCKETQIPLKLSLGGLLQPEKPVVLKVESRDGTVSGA

Cc1ccccc1OC/C(=C/F)CN
IC50 [1]: 3 nM
IC50 [2]: 160 nM
IC50 [3]: > 30000 nM

Cl.NC/C(=C\F)[C@H]1Cc2ccccc2O1
Activity (Mus musculus [4]): Active
IC50 [2]: 2400 nM
IC50 [3]: > 30000 nM
IC50 [5]: 0.4 nM
IC50 (Lysyl oxidase homolog 2): > 30000 nM
IC50 (Protein-lysine 6-oxidase): > 30000 nM
IC50 [6]: > 30000 nM
fraction unbound [7]: 0.24
fraction unbound [8]: 0.51
fraction unbound [9]: 0.42
remaining at 1 h [10]: 84%
remaining at 1 h [11]: 67%
remaining at 1 h [12]: 92%
remaining at 1 h [13]: > 95%
IC50 (Cytochrome P450 1A2): > 10000 nM
IC50 (Cytochrome P450 2C9): > 10000 nM
IC50 (Cytochrome P450 2C19): > 10000 nM
IC50 (Cytochrome P450 2D6): > 10000 nM
IC50 (Cytochrome P450 3A4): > 10000 nM
Tmax [14]: 20 min
Cmax [15]: 199 ng/mL
AUC(0-inf) [16]: 265 ng·h/mL
inhibition (Rattus norvegicus [17]): Active
inhibition (Rattus norvegicus [18]): Active
inhibition (Rattus norvegicus [19]): Active
Activity (Mus musculus [20]): Active
Activity (Mus musculus [21]): Active

NC/C(=C/F)[C@H]1Cc2ccccc2O1
IC50 [2]: 6800 nM
IC50 [3]: > 30000 nM

NCC(=CF)COc1ccc(F)cc1 (mixture of isomers)
IC50 [1]: 4 nM
IC50 [2]: 14000 nM
IC50 [3]: 780 nM

Cl.NC/C(=C\F)[C@@H]1Cc2ccccc2O1
IC50 [2]: 750 nM
IC50 [3]: > 30000 nM
permeability [22]: Permeable

NC/C(=C/F)[C@@H]1Cc2ccccc2O1
IC50 [2]: 100 nM

NC/C(=C\F)COc1ccccc1
IC50 [1]: 13 nM
IC50 [2]: 4000 nM
IC50 [3]: > 30000 nM

NC/C(=C/F)CCc1ccc(F)cc1 [MOFEGILINE]
IC50 [1]: 2 nM
IC50 [2]: 750 nM
IC50 [3]: > 30000 nM

NCC(=CF)COc1ccccc1 (mixture of isomers)
IC50 [1]: 9 nM
IC50 [2]: 2500 nM
IC50 [3]: 1600 nM

Cl.NCC(=CF)C1Cc2ccccc2O1 (mixture of isomers)
IC50 [2]: 460 nM
IC50 [3]: > 30000 nM
inhibition (INH) [23]: Active
inhibition (INH) [24]: Active
inhibition (INH) [25]: Active
